Laboratory results reported in US10363239B2, “Method for inhibiting growth of cancer cells” (Pain Therapeutics, Inc., priority 2013, dated 2019).

Experiments:
primary lung fibroblasts = test: [3H]glucose uptake; type: cell-based, human; conditions: C0105 0.1-5 nM, other compounds 1 or 5 nM; 4 days
Method: (§1) FIG. 1A through FIG. 1M illustrate the effects of various FLNA-binding compounds on glucose uptake in glioblastoma, melanoma, breast and pancreatic cancer cell lines, along with appropriate non-cancerous primary cell controls. Cells were grown in the absence or presence of 0.1-5 nM indicated compounds for 4 days. Following brief washes with PBS, cells were serum-deprived for 4 hours and then incubated in oxygenated Kreb's Ringer containing 0.1 μCi [^3H]glucose for 2 hours under constant oxygenation. The reaction was terminated by removal of the incubation medium, and cells were washed and scraped off to determine the amounts of [^3H]glucose in cells by scintillation spectrometry. […] N=5-6. […] . […] . To determine the effect of Compound C0105 on glucose utilization, the cancer and primary normal cells were plated extremely thinly (10%). Once cells attached, Compound C0105 was added at 0.1, 0.5, 1 or 5 nM in the medium twice daily (6 hours apart) for 4 days. The cells were serum-deprived (glucose deprived) for 2 hours. Cells were then rinsed with 1 ml PBS and glucose uptake was assessed by contacting the cells with [^3H]glucose (0.01 uCi/l ml) in Kreb's Ringer for 2 hours. Cells were then rinsed with 1 ml PBS 3 times, scraped off and their glucose content counted by liquid scintillation spectrophotometry.
(§2) Both glioblastoma and melanoma cells were plated extremely thinly. Once cells attached, Compound C0105 was added at 0.1, 0.5, 1 and 5 nM, whereas the other compounds were present at 1 and 5 nM in the medium twice daily (6 hours apart) for 4 days. The cells were serum-deprived (glucose deprived) for 2 hours. Cells were then rinsed with 1 ml PBS and glucose uptake was assessed by contacting the cells with [3H]glucose (0.01 uCi/l ml) of Kreb's Ringer for 2 hours. Cells were then rinsed with 1 ml PBS 3 times, scraped off and their glucose contents counted by liquid scintillation spectrophotometry.

[1] = tested on: glioblastoma cells (U-87 MG); test: [3H]glucose uptake; type: cell-based, human
Method: as §1, §2

melanoma cells (A2058) = test: [3H]glucose uptake; type: cell-based, human
Method: as §1, §2

[2] = tested on: pancreatic cancer MiaPaCa2 cells; test: [3H]glucose uptake; type: cell-based, human; conditions: 0.1-5 nM; 4 days
Method: as §1

[3] = tested on: breast cancer HTB-22 cells; test: [3H]glucose uptake; type: cell-based, human; conditions: 0.1-5 nM; 4 days
Method: as §1

[4] = tested on: primary human mammary epithelial cells (HMECs); test: Cell proliferation by cell-cycling markers Ki67 and PCNA (Western blots); type: cell-based; conditions: 0.1-5 nM; 4 days
Method: The effect of contact with Compound C0105 on cell proliferation was determined by the levels of cell-cycling markers: Ki67 and PCNA using Western blots in HTB-22 and control human mammary epithelial cells (HMECs). Cells treated with vehicle and 0.1-5 nM Compound C0105 for 4 days were collected, washed and solubilized. The resultant cell lysates were size-fractionated on SDS-PAGE and Western blotting to determine the levels of Ki67, PCNA and actin (loading control). The protein bands were quantified using densitometric scanning.
The effect of C0105 on cell proliferation was determined by the levels of cell-cycling markers Ki67 and PCNA using Western blots in HTB-22 and control HMECs. Cells contacted with vehicle and 0.1-5 nM Compound C0105 for 4 days were collected, washed and solubilized. […] The protein bands were quantified using densitometric scanning. […]
To study the effect of Compound C0105 on PI3K activity, the cancer and primary normal cells were cultured to approximately 60-70% confluency, serum deprived for 4 hours, briefly washed with PBS and treated with vehicle or 0.1, 0.5, 1 or 5 nM Compound C0105 for 24 hours with in 0.1% FBS-containing culture medium. […] The cell pellets were sonicated in ice-cold immunoprecipitation buffer and protein concentrations measured by the Bradford method. […]

melanoma cells = test: as above; type: cell-based, human; conditions: 0.1-5 nM; 4 days
Method: The effect of contact with Compound C0105 on cell proliferation was determined by the levels of cell-cycling markers: Ki67 and PCNA (proliferating cell nuclear antigen) using Western blots in human melanoma cells. Cells treated with vehicle and 0.1-5 nM C0105 for 4 days were collected, washed and solubilized (lysed). The resultant cell lysates were size-fractionated on SDS-PAGE and Western blotting to determine the levels of Ki67, PCNA and actin (loading control). The protein bands were quantified using densitometric scanning. […] N=4. *p<0.01 compared to vehicle (open bars).
To study the effect of Compound C0105 on PI3K activity, the cancer and primary normal cells were cultured to approximately 60-70% confluency, serum deprived for 4 hours, briefly washed with PBS and treated with vehicle or 0.1, 0.5, 1 or 5 nM Compound C0105 for 24 hours with in 0.1% FBS-containing culture medium. The cells were then washed with PBS, scraped off and collected by centrifugation. The cell pellets were sonicated in ice-cold immunoprecipitation buffer and protein concentrations measured by the Bradford method. […]
Immunoreactivity was visualized by reaction in ECL Plus chemiluminescent reagent for exactly 5 minutes, followed by immediate exposure of the blot to X-ray film (Z & Z Medical). Bands at the relevant molecular masses of Ki67 and PCNA were quantified by densitometric scan. […]

[5] = C0105 0.1-5 nM, other compounds 1 and 5 nM, twice daily for 4 days

CN1CCC2(CC1)NCC(=O)N2Cc1ccccc1 [Compound C0105]
Glucose uptake / glucose content (primary lung fibroblasts): not changed | Reduction of glucose uptake ([1]; 0.1 nM, 4 days): 25% | Inhibition of glucose uptake, maximal effect ([1]; 1 nM, 4 days): 50% | EC50 ([1]; 4 days, read-out: EC50, inhibition of glucose uptake): ~0.1 nM | Glucose utilization [1, 5]: decreased the elevated glucose utilization | Inhibition of glucose uptake (melanoma cells (A2058); 0.1-5 nM, not dose-dependent): about 25% | Glucose utilization (melanoma cells (A2058); [5]): decreased the elevated glucose utilization | Basal glucose uptake [2]: dose-dependent inhibition of basal glucose uptake | Basal glucose uptake [3]: dose-dependent inhibition of basal glucose uptake | Cell proliferation (Ki67 and PCNA levels) [4]: had no effect | Cell proliferation (Ki67 and PCNA levels) (melanoma cells): reduces cell proliferation
